Reference: patent publication US20190374572A1, “KAOLINIC CLAYS WITH ANTIMICROBIAL ACTIVITY” (IMERYS USA, INC., priority 2017, published 2019)
Marks after values point to notes of the source that are not given here.

Key:
E. coli [1] = experiment: CFU-based bacterial assay; format: cell-based
Experimental: Each sample set was evaluated using at least one of the following assays: (1) a CFU-based bacterial assay; […] As explained above, following sample incubation the samples were evaluated for the level of bacterial growth using a CFU-based bacterial assay and/or a UV-visible bacterial assay. The CFU-based bacterial assay involves serially diluting samples by various dilution factors, plating the surface of pre-poured LB plates, and manually counting the resulting sample cultures to measure the level of growth based on log10 CFU/ml. CFU per ml were calculated by counting the number of colonies on the plate with growths ranging from 30 and 300, and then applying the equation (1): In this CFU-based bacterial assay, the levels of activity corresponding to the control samples (no E. coli) were set as the zero points.

E. coli [2] = experiment: UV-visible bacterial assay (optical density at 570 nm); format: cell-based

| SMILES | 24 Hour log10 CFU/ml (E. coli [1]) [log10 CFU/ml] | Antibacterial potential category from OD at 570 nm (E. coli [2]) | UV-Vis Abs @ 570 nm (Optical Density (OD)) (E. coli [2]) |
| --- | --- | --- | --- |
| O.O.O.O.O.O.O.O=S(=O)([O-])[O-].[Fe+2] [Example 20, iron (II) sulfate heptahydrate] | 8.8 | 1.172 ^s) (key: Complete Kill Candidate (<0.250); p: Inhibition-Kill Candidate (0.250-0.350); q: Inhibition Candidate (0.351-0.450); <10^8 Growth Candidate (0.451-1.250); Robust Growth Candidate (>1.251)) |  |
| O.O.O.O.O.O=S(=O)([O-])[O-].[Cu+2] [Example 22, copper (II) sulfate pentahydrate] | 7.8 | 0.734 ^r) (key: Complete Kill Candidate (<0.250); p: Inhibition-Kill Candidate (0.250-0.350); q: Inhibition Candidate (0.351-0.450); <10^8 Growth Candidate (0.451-1.250); Robust Growth Candidate (>1.251)) | 0.734 ^r) |
| O.O.O.O.O.O=S(=O)([O-])[O-].[Cu+2] [Example 23, copper (II) sulfate pentahydrate] | 2.4 |  |  |
| O.O.O.O.O.O.O.O=S(=O)([O-])[O-].[Fe+2] [Example 21, iron (II) sulfate heptahydrate] | 0 | 0.291 ^q) (key: Complete Kill Candidate (<0.250); p: Inhibition-Kill Candidate (0.250-0.350); q: Inhibition Candidate (0.351-0.450); <10^8 Growth Candidate (0.451-1.250); Robust Growth Candidate (>1.251)) |  |
| O.O.O.O.O.O=S(=O)([O-])[O-].[Cu+2] [Example 24, copper (II) sulfate pentahydrate] | 0 | 0.055 ^p) (key: Complete Kill Candidate (<0.250); p: Inhibition-Kill Candidate (0.250-0.350); q: Inhibition Candidate (0.351-0.450); <10^8 Growth Candidate (0.451-1.250); Robust Growth Candidate (>1.251)) | 0.055 ^p) |
